# Source: publication PMC12856317, “A reversible feedback mechanism regulating mitochondrial heme synthesis” (The Journal of Biological Chemistry, 2025)
# What was measured:
# [1] = target: T1, apoALAS2 ΔN (residues 75–587) (Homo sapiens, UniProt P22557); experiment: Inhibitor competition, apoenzyme reactivation by PLP with hemin; type: biochemical
# T1 construct: a truncation without HRM3 (ΔN, residues 75–587); His6-SUMO (N, cleaved yes); made in house; host or cells: Escherichia coli BL21-Codon Plus (DE3)-RIL
# T1 sequence (P22557 75-587): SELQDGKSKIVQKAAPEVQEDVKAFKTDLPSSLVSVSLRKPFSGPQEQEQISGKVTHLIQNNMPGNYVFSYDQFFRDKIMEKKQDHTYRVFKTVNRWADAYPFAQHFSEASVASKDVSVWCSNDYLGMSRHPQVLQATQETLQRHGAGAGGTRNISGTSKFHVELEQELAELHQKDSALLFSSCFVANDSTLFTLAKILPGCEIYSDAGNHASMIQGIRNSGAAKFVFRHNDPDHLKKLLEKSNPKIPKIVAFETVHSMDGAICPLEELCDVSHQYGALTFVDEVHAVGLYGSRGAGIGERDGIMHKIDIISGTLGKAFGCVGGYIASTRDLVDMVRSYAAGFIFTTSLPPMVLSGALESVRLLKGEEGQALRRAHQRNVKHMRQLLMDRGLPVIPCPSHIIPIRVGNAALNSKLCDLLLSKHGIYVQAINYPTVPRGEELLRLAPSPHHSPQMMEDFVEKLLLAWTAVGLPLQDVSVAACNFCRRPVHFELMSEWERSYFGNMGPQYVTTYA
# Method: A discontinuous colorimetric activity assay adapted from Shoolingin-Jordan et al. and Bailey et al. was used to measure the enzyme activity ([48], [74]). The reaction was initiated by adding 100 nM purified enzyme to 50 mM potassium phosphate, pH 7.0, 10 mM MgCl2, 1 mM DTT, 100 mM glycine, and 300 μM succinyl-CoA (175 μl total). The reaction was incubated at 37 °C for 15 min and terminated with 100 μl of cold 10% trichloroacetic acid. The precipitated protein was removed by centrifugation for 5 min at 13,000g, and 240 μl of the supernatant was mixed with 240 μl of 1 M sodium acetate, pH 4.6. To derivatize ALA, 20 μl of acetylacetone was added to the mixture and boiled at 100 °C for 10 min. After the sample was cooled for 20 min, 100 μl aliquots were transferred into a clear 96-well plate in triplicate. An equal volume of Ehrlich’s reagent (p-Dimethylaminobenzaldehyde, DMAB) was added to each well, and the absorbance was monitored at 553 nm using a microplate reader (Thermo Fisher Scientific). The peak absorbance value was converted to molar ALA concentration using ε553 = 60,400 M^−1 cm^−1.
# For inhibitor competition experiments, the apoenzymes were preincubated with hemin or PLP (0–100 μM) for 15 min at 25 °C in the dark before initiating the reaction. Next, either PLP or hemin (0–100 μM) was titrated into the reactions to measure enzyme activation after hemin inhibition or enzyme inhibition of the PLP-treated apoenzyme, respectively. For succinyl-CoA:hemin competition analyses, the WT holoenzyme was mixed with hemin (0, 25, 50, and 100 μM), followed by the addition of increasing succinyl-CoA concentrations (0, 25, 50, 100, 250, and 500 μM). All experiments were performed with a minimum of three biological replicates, each with three technical replicates. Data were fit using nonlinear regression to generate an agonist dose-response curve (EC50) or an inhibitor dose-response curve (IC50). Lineweaver-Burk analysis was performed using the resulting kinetic parameters (Vmax and KM) in GraphPad Prism 10.
# [2] = target: T2, human ALAS2 Cys-mut (C70A/C555A/C558A) (Homo sapiens, UniProt P22557, C555A/C558A/C70A); experiment: Isothermal titration calorimetry, hemin-protein interaction; type: binding; conditions: ITC, 25 °C
# T2 construct: Site-directed mutagenesis was performed on the mature ALAS2 (residues 54–587) construct to generate truncations and cysteine mutants; His6-SUMO (N, cleaved yes); made in house; host or cells: Escherichia coli BL21-Codon Plus (DE3)-RIL
# T2 sequence (P22557 54-587 C70A/C555A/C558A): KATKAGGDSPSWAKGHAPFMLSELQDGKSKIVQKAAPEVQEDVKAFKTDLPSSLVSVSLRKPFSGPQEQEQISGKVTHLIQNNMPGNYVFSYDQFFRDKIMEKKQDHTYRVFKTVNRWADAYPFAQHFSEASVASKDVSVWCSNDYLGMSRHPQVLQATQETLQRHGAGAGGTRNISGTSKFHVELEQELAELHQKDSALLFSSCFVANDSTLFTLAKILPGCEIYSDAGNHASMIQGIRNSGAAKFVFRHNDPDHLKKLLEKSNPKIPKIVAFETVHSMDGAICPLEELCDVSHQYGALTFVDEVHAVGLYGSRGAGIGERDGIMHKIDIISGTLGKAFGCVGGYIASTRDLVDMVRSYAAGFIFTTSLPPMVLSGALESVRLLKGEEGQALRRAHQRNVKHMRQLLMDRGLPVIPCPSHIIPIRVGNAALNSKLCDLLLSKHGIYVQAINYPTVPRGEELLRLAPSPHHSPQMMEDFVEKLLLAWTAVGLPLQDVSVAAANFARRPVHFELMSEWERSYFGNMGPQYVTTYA
# Method: Binding curves of the hemin-protein interaction were determined using Nano-ITC instrument (TA instruments) at 25 °C. Hemin was dissolved in 1 M NaOH and autoclaved to prepare a stock solution of 746 μM, ε385nm = 58,440 M^−1 cm^−1. The stock solution was diluted to 1.5 μM in titration buffer containing 25 mM Hepes, pH 7, 150 mM KCl, and 0.5 mM TCEP. Protein samples were dialyzed into the titration buffer and diluted to a final concentration of 40 μM. Fixed volumes of protein were injected at 200-s intervals into the cell containing hemin. An A + B hetero-association model was used to determine the thermodynamic parameters for each variant. Data were integrated and analyzed using NITPIC and SEDPHAT and visualized using GUSSI ([71], [72], [73]).
# [3] = 95% confidence interval in brackets
"EC50 ([1]; ΔN apoALAS2, PLP titration in the presence of 25 μM hemin) [µM]",ΔG [2] [kcal/mol],ΔS [2] [kcal/mol K],"Kd [2, 3] [µM]","ΔH [2, 3]","mode of inhibition ([1]; ΔN, multiple heme concentrations (Fig. S4))",Compound
4 ± 2,,,,,,Cc1ncc(COP(=O)(O)O)c(C=O)c1O [PLP]
,-8.48,−1.18,0.61,"−361 [−561, −280] kcal/mol",allosteric mixed inhibitor,ferric chloride heme [hemin]
